Entries after “also recorded” stand apart in the source; their conditions may differ. Read-outs that look alike come from different tables or passages of the source. One block for each molecule: values may come before it. d = 2'-deoxy (DNA); m = 2'-O-methyl
Tests used:
Assay type in all cases: cell-based, human
A549b cells [1] = assay: Proliferation of A549b cells after OLIGO/siRNA transfection (cell counting); conditions: for relative proliferation: FIG. 12
Protocol: Cultured cell lines were maintained in minimum essential medium a with nucleosides plus 10% fetal bovine serum and penicillin (50 units/mL)/streptomycin (50 mg/L) (growth medium). Cultures were incubated in a humidified atmosphere of 5% CO2 at 37° C. Cultured cell lines were maintained and cytotoxicity assays conducted as described previously (3). Rapidly proliferating cells were utilized for establishing cultures of experimental cells, which were allowed to plate overnight in 25-cm^2 flasks prior to manipulation. An established cell line of non-small-cell lung carcinoma (NSCLC), A549b, which was propagated by serial dilution from a single cell of an A549 parent cell line, was used for the establishment of antisense activity of oligonucleotides. This cell line proliferates with a mean generation time of approximately 20 hours, and is capable of forming tumours in immunodeficient mice with a take rate of greater than 90%. Therefore, this cell line is a good model system that can be used in both in vitro and in vivo experiments to test the activity of OLIGOs.
OLIGOs were introduced into cells with the use of Lipofectamine 2000 (LFA2K) (Invitrogen, Burlington, Ontario, Canada). OLIGOs were mixed with LFA2K at a ratio of 0.2 μg/ml per 10 nM OLIGO. The mixture was prepared at 11× the final concentration to which cells were exposed, so that 200 μL was added to 2 mL of medium in which cells were plated. As controls, cells were exposed to medium alone (no treatment), LFA2K alone at concentrations equivalent to those used in combination with OLIGOs (in some experiments only the maximum LFA2K concentration was used as a control), or OLIGO having no complementarity with any human mRNA. The OLIGO/LFA2K mixtures were then incubated at room temperature for 20 minutes, according to instructions supplied with the LFA2K, followed by addition of the OLIGOs to the cell medium. The OLIGO/LFA2K mix was then incubated (37° C.) on the cells for 4 hours, after which a second volume of medium was added. Cells were then incubated for 20 hours. Following this incubation, the OLIGO-containing medium was replaced with drug-free medium (i.e. medium without OLIGOs) and the cells were incubated for an additional 4 days. Following the 4-day incubation, the proliferation of the treated cells (fold-increase in cell number) was calculated as a percentage of that of control cells. Cell numbers were enumerated on an electronic particle counter (Beckman Coulter, Mississauga, ON). For the purpose of determining the anti-proliferative effect of antisense OLIGOs, the proliferation of cells treated with antisense OLIGOs was calculated as a percent of that of cells treated with an equivalent concentration of non-complementary control OLIGO (in this case OLIGO 32) mixed with an equivalent amount of LFA2K.
OLIGO-containing medium was removed and replaced with fresh medium. Cells were incubated for 4 days, at which time cell number was counted. Proliferation was calculated as a percent of non-targeting OLIGO-treated controls.
Cells were incubated for 4 days, at which time cell number was counted. Proliferation was calculated as a percent of controls.

TS mRNA = assay: RT-qPCR of TS mRNA in A549 cells after OLIGO transfection; conditions: 20 nM OLIGO, 24 hours post-transfection; FIG. 16
Protocol: (§1) Briefly, A549 cells seeded at a density of 2.0×10^5 per flask were transfected with 20 nM of OLIGO specific for each target or control OLIGO using Lipofectamine 2000 as the transfection reagent. Twenty four hours post-transfection mRNA was extracted and reverse transcribed into cDNA. RT-qPCR was performed for target mRNA levels using TaqMan reagents according to established protocols.

BRCA2 mRNA = assay: RT-qPCR of BRCA2 mRNA in A549 cells after OLIGO transfection; conditions: 20 nM OLIGO, 24 hours post-transfection; FIG. 16
Protocol: as §1

MCF-7 cells = assay: Cell proliferation assay, ASO and/or olaparib (cell counting); conditions: single olaparib treatment, 96 hours, vs vehicle; FIG. 27C
Protocol: (§2) A: BRCA2-wild type SKOV-3 cells (black bars), […] MCF-7 cells (white bars), and BRCA2-mutated CAPAN-1 cells (grey bars) were treated simultaneously but separately with BRCA2 ASO (20 nM). Due to differing growth medium requirements and to avoid fluorescent label-induced changes in drug sensitivity, cells were not co-cultured. They were treated independently, at the same time with the same materials. Ninety-six hours post-transfection, cells were counted and proliferation determined (% of proliferation after control ASO treatment).
(§3) C: SKOV-3, MCF-7 and CAPAN-1 cells were treated with two different concentrations of olaparib for 96 hours. After drug treatment they were counted and proliferation was determined as a percent of that of vehicle-treated cells.
FIG. 28 illustrates combined BRCA2 ASO and olaparib treatment decreases the proliferation of both HRR-deficient and HRR-proficient cells. […] Proliferation was determined using cell counting 96 hours post-transfection.
Four hours post-transfection, cells were seeded into 6 well dishes in appropriate experimental groups. […] Ninety-six hours post transfection, cells were collected and counted (Coulter Particle Counter). Proliferation was determined based on initial cell density and calculated as a percentage of ASO+vehicle treated cells.

CAPAN-1 cells = assay: Cell proliferation assay, ASO and/or drug (cell counting); conditions: single olaparib treatment, 96 hours, vs vehicle; FIG. 27C
Protocol: as §2, §3
Four hours post-transfection, cells were seeded into 6 well dishes in appropriate experimental groups. Twenty-four hours post transfection, cells were treated with olaparib (Selleckchem) at three concentrations. Ninety-six hours post transfection, cells were collected and counted (Coulter Particle Counter). Proliferation was determined based on initial cell density and calculated as a percentage of ASO+vehicle treated cells.

[2] = test system: mixed cell population SKOV-3^shBRCA2:SKOV-3^shControl 3:1; assay: Co-culture model of BRCA2 heterogeneity, proliferation; conditions: 2.5 μM, FIG. 29A
Protocol: (§4) A: SKOV-3^shBRCA2 cells (low BRCA2) were mixed with SKOV-3^shControl cells (high BRCA2) at a 3:1 ratio, resulting in a primarily HRR-deficient mixed cell population. Parental and mixed populations were treated for the first time with olaparib (1° olaparib, 2.5 μM) or vehicle. Cells were re-plated at equal density 96 hours post-treatment. Parental and mixed populations were then treated a second time with olaparib (2° olaparib, 2.5 μM) or control vehicle. Ninety-six hours post-treatment, proliferation for all groups was determined based on cell counts and seeding density following 1° olaparib or vehicle treatment. White bars: 2° olaparib. Black bars: no 2° olaparib.
B: SKOV-3^shBRCA2 cells (low BRCA2), SKOV-3^shControl cells (high BRCA2), and a mixed cell population (3:1, low BRCA2:high BRCA2) were transfected with control ASO or BRCA2 ASO followed by treatment with vehicle or olaparib (2.5 μM). Proliferation (percent of control ASO-treated cells) was determined 96 hours post-transfection. […]
(§5) To mimic a heterogeneous tumor cell population that is predominantly HRR-deficient, we co-cultured SKOV-3^shBRCA2 (low BRCA2) and SKOV-3^shcontrol (high BRCA2) in a 3:1 ratio. The mixed cell population, along with unmixed SKOV-3^shBRCA2 and SKOV-3^shcontrol populations, was treated with olaparib (1° Olaparib), then counted, re-seeded and treated with olaparib a second time (2° Olaparib) (FIG. 32).

[3] = test system: SKOV-3^shBRCA2 cells (low BRCA2); assay: Co-culture model, unmixed population, proliferation; conditions: olaparib 2.5 μM; FIG. 29A
Protocol: as §4, §5

A549b cells [4] = assay: cells; conditions: Homo sapiens, curves extrapolated, unit inferred, read-out: concentration of olaparib required to inhibit proliferation of A549b cells by 50% (IC50)
Protocol: OLIGOs were introduced into cells with the use of Lipofectamine 2000 (LFA2K) (Invitrogen, Burlington, Ontario, Canada). OLIGOs were mixed with LFA2K at a ratio of 0.2 μg/ml per 10 nM OLIGO. The mixture was prepared at 11× the final concentration to which cells were exposed, so that 200 μL was added to 2 mL of medium in which cells were plated. After incubating at room temperature for 20 minutes, according to manufacturer's instructions, the OLIGOs were added to the cell medium. The OLIGO/LFA2K mix was then incubated (37° C.) on the cells for 4 hours, after which a second volume of medium was added. Cells were then incubated for 20 hours. Following this incubation, the OLIGO-containing medium was replaced with OLIGO-free medium.
For cells treated with the drug olaparib, for the purposes of determining whether inhibitory activity was enhanced by the OLIGO pretreatment, olaparib was added at this time, in concentrations of from 0.01 μM to 3 μM. At this point, replicate flasks from the OLIGO-treatment were used to enumerate cell content, as this varied among treatments over the initial 24-hour exposure. This was done so that the effect of treatment with olaparib could be ascertained based on the cell population that was present at the time of initiation of exposure to olaparib. Exposure to the olaparib was initiated by addition of 0.2-volume of a preparation of the drug, at 6× final concentration in growth medium, to the fresh drug-free medium on the cells (1 ml of drug into 5 ml of medium). Following a further 4-day incubation, the proliferation of the treated cells (fold-increase in cell number) was calculated as a percentage of that of control cells. Cell numbers were enumerated on an electronic particle counter (Beckman Coulter, Mississauga, ON). As indicated in Example 1, for the purpose of determining the anti-proliferative effect of antisense OLIGOs alone, the proliferation of cells treated with antisense OLIGOs was calculated as a percent of that of cells treated with an equivalent concentration of non-complementary control OLIGO (in this case OLIGO 32). However, for the purpose of determining the anti-proliferative effect of olaparib against antisense or non-complementary (control) OLIGO-treated cells, the proliferation was calculated as a percent of cells treated with the respective OLIGO.
These experiments were carried out essentially as described in Example 3, with the following changes. The drug tested was cisplatin instead of olaparib, and cisplatin was tested in concentrations ranging from 0.5 μM to 2 μM.
These experiments were carried out essentially as described in Example 3, with the following changes. The drug tested was melphalan in concentrations ranging from 2 μM to 10 μM.
These experiments were carried out essentially as described in Example 3, with the following changes. The drug tested was carboplatin at concentrations ranging from 5 μM to 40 μM.
These experiments were carried out essentially as described in Example 3, with the following changes. The drug tested was oxaliplatin was tested in concentrations ranging from 0.2 μM to 2.5 μM.
Cisplatin was added to the final concentration indicated, and as described in Example 3. Cells were incubated for 4 days, at which time cell number was counted. Proliferation was calculated as a percent of siRNA-treated, non-cisplatin-treated controls.

SKOV-3 cells = assay: Cell proliferation assay, ASO transfection and/or drug (cell counting); conditions: single olaparib treatment, 96 hours; FIG. 27C
Protocol: FIG. 24 illustrates that BRCA2 inhibition sensitizes ovarian cancer and breast cancer cell lines to olaparib treatment. SKOV-3 (A) and CaOV3 (B) cells were transfected with control ASO (•) or BRCA2 ASO (∘) and then treated with three different concentrations of olaparib. Proliferation was determined by cell counting 96 hours post-transfection (*p<0.05). C: BRCA2 mRNA levels were measured by qPCR 24 hours following BRCA2 ASO transfection in SKOV-3, CaOV3, 211 H and H2052 cell lines.
E: SKOV-3 cells were transfected with control or BRCA2 ASO and then treated with olaparib 24 hours post transfection. Ninety-six hours post transfection, cells were counted, plated, and re-transfected with control ASO or BRCA2 ASO and re-treated with olaparib. Cell counts were performed 96 hours post transfection (*p<0.05). […]
A: BRCA2-wild type SKOV-3 cells (black bars), […] MCF-7 cells (white bars), and BRCA2-mutated CAPAN-1 cells (grey bars) were treated simultaneously but separately with BRCA2 ASO (20 nM). […] Ninety-six hours post-transfection, cells were counted and proliferation determined (% of proliferation after control ASO treatment).
C: SKOV-3, MCF-7 and CAPAN-1 cells were treated with two different concentrations of olaparib for 96 hours. After drug treatment they were counted and proliferation was determined as a percent of that of vehicle-treated cells. […]

Molecule: 5′-UUAUCCAGGACAUCACUGC-3′ [RADb]
inhibited proliferation of A549b cells (A549b cells [1]; siRNA at 2 nM, FIG. 21): over 50%

Molecule: 5′-gccaguGGCAACATccuuaa-3′ (antisense GCCAGUGGCAACATCCUUAA; sugars from the 5' end m6 d8 m6, all phosphorothioate, methylation of C not given here) [OLIGO 83]
effect on TS mRNA level (TS mRNA): reduction in TS mRNA
relative proliferation (A549b cells [1]; 20 nM OLIGO 83, vs OLIGO 491S): approximately 20%
effect on BRCA2 mRNA level (BRCA2 mRNA): no significant effect on BRCA2 mRNA

Molecule: 5′-ugcccgATACACAAacgcug -3′ (UGCCCGATACACAAACGCUG; gapmer, lower-case wings modified, type not given here) [BR3]
relative proliferation (A549b cells [1]; 10 nM of BR3, vs equivalent concentration of OLIGO 491S): approximately 85%
anti-proliferative effect as single agent (A549b cells [1]; A549/A549b cells, 4 h transfection, counted after 4 d, vs non-targeting control OLIGO): inhibit proliferation of human non-small cell lung cancer A549 cells in a concentration-dependent manner; also recorded: antiproliferative on its own

IC50 (A549b cells [4]; in the absence of BR1 (control OLIGO 32)): ~5000 nM
IC50 (A549b cells [4]; in the presence of BR1 pretreatment): ~50 nM
Molecule: O=C(c1cc(Cc2n[nH]c(=O)c3ccccc23)ccc1F)N1CCN(C(=O)C2CC2)CC1 [olaparib, reference compound]
decreased the proliferation (MCF-7 cells): 39%±6.8%
decreased the proliferation (CAPAN-1 cells): 94%±4.6%
response to initial olaparib treatment ([2]; 1° olaparib): sensitive to initial treatment with olaparib
response to second olaparib treatment ([2]; 2° olaparib): completely unresponsive to a second treatment
response to olaparib after two treatments [3]: remained sensitive to olaparib even after two treatments
effect of olaparib on proliferation (SKOV-3 cells): no effect on SKOV-3 proliferation
